According to patent US11617748B2, “Meclozine derivatives and diclazuril derivatives for use in the prevention and/or the treatment of disorders associated to the inflammation induced by P. acnes” (priority 2016, dated 2023):

Columns and labels:
[1] = test system: P. acnes-induced ear inflammation; experiment: In vivo model of P. acnes-induced inflammation in mouse ears; settings: mice; for decrease of the ear inflammation: topical, each day for 3 days, score over 96 h
Procedure: This model is based on the capacity of mouse ears to react while P. acnes is intradermally injected. The inflammatory reaction is evaluated each day over a period of 4 days after P. acnes injection by measuring the thickness of the ears, the redness as well as the presence of a desquamation and/or small pustules. At the end of the experiment, final measurement of inflammation was realized and photographic pictures of ears were taken. Then, mice were euthanized and ears were immediately fixed in a formalin-containing buffer for a future histological analysis. The experimental design consisted of 3 groups containing 10 mice each. 1) PBS corresponds to the non-treated group injected with PBS. 2) PA+Vehicle TOPIC corresponds to P. acnes injected in ears treated with Vaseline alone. 3) PA+diclazuril corresponds to P. acnes injected in ears treated with 1.3% diclazuril mixed with Vaseline. The preparation of the 1.3% diclazuril gel consisted of extemporaneously gently mixing 6.5 mg of diclazuril with […] for 1 min at room temperature (21° C.) and then directly applied to the mouse ears. This model is based on the capacity of mouse ears to react while P. acnes is intradermally injected. The inflammatory reaction is evaluated each day over a period of 4 days after P. acnes injection by measuring the thickness of the ears, the redness as well as the presence of a desquamation and/or small pustules. At the end of the experiment, final measurement of inflammation was realized and photographic pictures of ears were taken. Then, mice were euthanized and ears were immediately fixed in a formalin-containing buffer for a future histological analysis.

PPARβ = experiment: Western blot of PPARβ expression in P. acnes-stimulated HaCaT cells; type: cell-based, human; settings: 25 μM, 24 h pre-treatment
Procedure: (§1) Western Blot analysis. Whole cell protein extracts (25 μg) were separated by electrophoresis (LDS-PAGE) under denaturing conditions with NuPAGE Novex 4-12% Bis-Tris gel (1 mm, 12 wells, Invitrogen, UK) and proteins were transferred onto nitrocellulose membranes and saturated in 20 ml of saturation buffer consisting of TBS 1× (Tris Buffered Saline) containing 200 mM Tris, 1.4 M NaCl (pH 7.6), 5% no fat milk, 0.1% Tween 20 for 1 h. […] After washing to remove unbound antibodies, bound primary antibodies were detected by incubation for 1 h using secondary antibody against rabbit- and mouse IgG (Santa Cruz Biotechnology, SC-2357, 1:5000 and SC-2005, 1:5000, respectively). Unbound material was removed by washing and peroxidase activity was detected in a chemiluminescence assay (WesternBright ECL, Advansta, Menlo Park, USA). […]

p38 = experiment: Western blot of p-p38/p38 in P. acnes-stimulated HaCaT cells; type: cell-based, human; settings: 25 μM, 24 h pre-treatment
Procedure: as §1

PPARγ = experiment: Western blot of PPARγ expression in P. acnes-stimulated HaCaT cells; type: cell-based, human; settings: 25 μM, 24 h pre-treatment
Procedure: as §1

IL-8 production = experiment: PGN-induced IL-8 production in HaCaT keratinocytes (ELISA); type: cell-based, human; settings: 6.25 μM, 24 h pre-treatment, PGN 5, 10, 20 μg/ml for 18 h
Procedure: ELISA. Human IL-1β, IL-8, hBD-2 and TNF-α protein concentration were measured in the supernatants of stimulated cells using various ELISA Sets (all from Ready-Set-Go from eBioscience, except hBD-2 measurements: Human DEFB4A/BD-2 ELISA Kit from LSBio) according to the manufacturer's instructions. We used serial dilutions of recombinant human IL-1β, IL-8, hBD-2 and TNF-α for standard curve. The optical density was determined at 450 nm at a wavelength correction of 540 nm.
Previously it has been shown that diclazuril and meclozine were able to inhibit IL-8 and IL-1β productions at the transcriptional and […] levels in pretreated cells stimulated with P. acnes. Here, it is investigated if the nature of the cell stimuli would have an impact on the diclazuril and meclozine effects on the IL-8 and IL-1β productions. Both, HaCaT and ThP-1 cell lines were pretreated with several concentrations of diclazuril and meclozine ranging from 0.39 to 25 μM for 24 h, and then stimulated with 3 different concentrations of peptidoglycanne (PGN) and lipoteicoic acid (LTA) at 5, 10 and 20 μg/ml for 18 h at 37° C. […] Pretreatment of keratinocytes with diclazuril decreased the production of IL-8 by an average of 65% at 6.25 μM regardless of the initial PGN dose used (FIG. 5A). Same results were obtained with meclozine and at 6.25 μM the IL-8 production was reduced by 60% (FIG. 5B).

IL-1β mRNA = experiment: RT-qPCR of P. acnes-induced IL-1β mRNA in ThP-1 cells; type: cell-based, human; settings: 10 μM, 24 h pre-treatment, 5 h P. acnes
Procedure: RT-qPCR assay. […] Total RNA was isolated using the NucleoSpin RNA and treated with DNAse I, according to the manufacturer's instructions (Macherey-Nagel, Hoerdt, France). RNA concentration was determined at 260 nm on a nanodrop (Labtech, France) and the ratios for all samples were ranging between 1.6 and 1.9. Complementary DNA were generated from 100 ng of total RNA at 50° C. for 10 min followed by the quantitative PCR analysis, carried out in the LightCycler Nano (Roche), and performed with the iTaq Universal SYBR Green One-Step kit (Bio-Rad Laboratories, Hercules, Calif., USA) with a 2-step cycles conditions set at 95° C. for 60 s followed by 40 cycles of 95° C. for 15 s, 68° C. for 60 s, and ended by a melting curve at 65-95° C., 60 s with 0.1° C./s. From the amplification curves, the threshold cycles (Ct) are determined for the studied genes. The amount of relative RNA in stimulated cells relative to control cells is calculated according to the method of 2Act and expressed as a relative fold change expression normalized to gene expression of internal control (GAPDH). IL-8 primers were used: sens 5′-[sequence]-3′, anti-sens 5′-[sequence]-3′ and GAPDH primers: sens 5′-[sequence]-3′, GADPH anti-sens 5′-[sequence]-3′. Sample quantification was made in triplicate.
Controls experiments were done with unpretreated/unstimulated cell and with P. acnes stimulated cells only.

[2] = 1% meclozine gel topical, vs PA+Vehicle

SMILES	decrease of the ear inflammation ([1]; 1.3% diclazuril in Vaseline) [%]	expression of PPARβ (PPARβ)	phosphorylation of p38 induced by P. acnes (p38)	expression of PPARγ (PPARγ)	decrease of PGN-induced IL-8 production (IL-8 production) [%]	inhibition of IL-1β mRNA production (IL-1β mRNA)	decrease of the ear inflammation ([1]; 1% meclozine gel (Vaseline, DMSO, Solutol/water)) [%]	ear thickness (histological analysis) [1, 2]	leukocyte infiltration (histological analysis) [1, 2]
N#CC(c1ccc(Cl)cc1)c1c(Cl)cc(-n2ncc(=O)[nH]c2=O)cc1Cl (stereo not shown) [diclazuril, Diclazuril]	37	no change	prevented the phosphorylation	no change	65	up to 91%	–	–	–
Cc1cccc(CN2CCN(C(c3ccccc3)c3ccc(Cl)cc3)CC2)c1 (stereo not shown) [meclozine, Meclozine]	–	strongly decrease	prevented the phosphorylation	–	60	≤ 38%	29.5	decrease	decrease
